Assay results published in patent US20040175817A1, “Crystallised catalytic domain of matrix metalloproteinase 9 (mmp9) and the use of its three dimensional structure to design mmp9 modulators” (priority 2001, published 2004).
“Also recorded” adds a separate entry of the source.

Molecular target: T1, MMP9(107-216,391-443) (Homo sapiens, UniProt P14780, DEL217-390)
T1 construct: phenylalanine (107) and a stop codon was introduced, via the 3′ primer, after residue 443; made in house; host or cells: E. coli BL21(DE3)
T1 sequence (P14780 with tags, fused parts or gaps DEL217-390 limits assumed): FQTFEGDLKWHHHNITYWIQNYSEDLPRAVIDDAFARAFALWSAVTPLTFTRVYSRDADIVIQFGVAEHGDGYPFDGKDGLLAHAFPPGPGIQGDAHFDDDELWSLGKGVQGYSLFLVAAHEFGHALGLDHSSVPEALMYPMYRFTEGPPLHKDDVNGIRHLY
Test: Auto-proteolysis (autodegradation) of MMP9 catalytic domain during refolding, storage and crystallisation
Type: biochemical
Description: Another major hurdle in the crystallisation and structure determination of MMP9 is that the MMP9 catalytic domain is aggressively autolytic. We therefore purified wild-type MMP9 in the presence of an inhibitor and then crystallised the purified complex. Addition of an inhibitor during the refolding step following urea denaturation is essential for prevention of N-terminal degradation and the formation of well-ordered crystals.
Following expression in E. coli, MMP9(107-216,391-443) is mainly located in the inclusion body fraction. The E. coli were harvested, washed and lysed and centrifuged to isolate the insoluble protein. The insoluble fraction was then suspended in 6M Urea to solubilise the protein. To generate active MMP9(107-216,391-443) the solubilised material was dialysed sequentially versus 4M, 1M and 0M Urea. […] Post dialysis, the protein was subjected to zinc chelate chromatography which selectively bound the MMP9 catalytic domain. A further chromatography step was then carried out using the tripeptide Pro-Leu-Gly bound to sepharose which bound correctly folded MMP9 catalytic domain. The protein was then eluted by addition of an MMP9 inhibitor. Expression and refolding of the [E402Q]MMP9(107-216,391-443) construct was carried out as for the wild type construct except that no acetohydroxamic acid was added to the refold buffers. […]

CC(=O)NO [acetohydroxamic acid]
auto-proteolysis of the N-terminus / autodegradation of the wild type MMP9 protein during refolding (added to the refold buffers, wild type MMP9 catalytic domain): prevent autodegradation; also recorded: inhibited auto-proteolysis of the N-terminus of the protein
autodegradation of the wild type MMP9 protein during storage or during the period of crystallisation (storage or crystallisation period, wild type MMP9): not sufficiently potent to prevent autodegradation
